# Assay results from patent publication US20220257601A1, “INHIBITORS OF PRC1 FOR TREATMENT OF CANCER” (Board of Regents, The University of Texas System, priority 2019, published 2022).
# Values joined by “and” are separate entries in the source; they are usually repeats but may differ in a detail not shown here. Equal entries are not always repeated. Where two headings read alike, the source gives them in different places.
# Legend:
# PC3 cells [1] = assay: Bone metastasis after intracardiac injection of PC3 cells in male nude mice; type: in vivo, mouse; conditions: for Outgrowth of macroscopic bone lesions (bioluminescent imaging): data not shown
# Experimental: (§1) For localized tumor growth assay, cells were resuspended in 100 μl PBS with Matrigel in 1:1 ratio and subcutaneously injected into both rear flanks. The volume of the s.c. xenograft was calculated as V=L×W^2/2, where L and W stand for tumor length and width, respectively. For experimental metastasis assays, cells were resuspended in 100 μl 1×PBS and intracardially injected into the left ventricle with a 26 G tuberculin syringe. For bone colonization, RM1 cells were resuspended 100 μl 1×PBS and injected into the intra-femoral artery. Metastatic burden was detected through non-invasive bioluminescence imaging of experimental animals using an IVIS Spectrum.
# (§2) To investigate the effect of drug treatment, compounds or antibodies were delivered twice every week or every three days through i.p. injection except BLZ945, which was delivered orally. Bioluminescence signal was measured using the ROI tool in Living Image 4.4 software (PerkinElmer).
# (§3) For bioluminescent imaging, mice were anesthetized and injected with 1.5 mg of D-luciferin retro-orbitally at the indicated times. Animals were imaged in an IVIS® 100 chamber within 5 min after D-luciferin injection, and data were recorded using LIVING IMAGE® software (Xenogen). To measure bone colonization after intracardiac injection, photon flux was calculated by using the ROI tool in the LIVING IMAGE® software. Bone metastases were further confirmed by X-Ray imaging. Mice were anesthetized with ketamine (100 mg/kg) and xylazine (10 mg/kg), placed on digital X ray Film (Scan X) and exposed at 25 kV for 15 s using a Faxitron instrument (Model MX-20; Faxitron Corp. Buffalo, Ill.).
# (§4) The tissue sections were deparaffinized with EZPrep buffer (Ventana Medical Systems), antigen retrieval was performed with CC1 buffer (Ventana Medical Systems). Sections were blocked for 30 minutes with Background Buster solution (Innovex), followed by avidin-biotin blocking for 8 minutes (Ventana Medical Systems) (except for slides stained with CD4 and NKp46 antibodies). Sections were incubated with anti-RNF2, anti-BMI1, anti-Ki67, anti-Cleaved Caspase 3, anti-CD11b, anti-CD68, anti-CD8, anti-CD31, anti-B220, anti-FoxP3, anti-CD4, or anti-NKp46 for 5 hours, followed by 60 minutes incubation with biotinylated horse anti-rabbit IgG at 1:200 dilution (for Ki67, Cleaved Caspase 3, CD11b and CD8) or biotinylated goat anti-rat IgG at 1:200 dilution (for CD31, B220 and FoxP3) or biotinylated horse anti-goat IgG at 1:200 dilution (for CD4 and NKp46). The detection was performed with DAB detection kit (Ventana Medical Systems) according to manufacturer instruction. Slides were counterstained with hematoxylin and coverslipped with PERMOUNT™ (Fisher Scientific).
# RM1 cells [2] = assay: Tumor sphere assay, RM1 cells; type: cell-based, mouse; conditions: data not shown
# Experimental: (§5) Single cell suspensions of LNCaP, DU145, PC3, PC3M or RM1 cells (1,000 cells/ml) were plated on ultra-low attachment plates and cultured in serum-free PrEGM (Lonza) supplemented with 1:50 B27, 20 ng/ml bFGF and 40 ng/ml EGF for 10 days. Tumor spheres were visualized under phase contrast microscope, photographed, and counted. For serial passage, tumor spheres were collected using 70-μm cell strainers and dissociated with ACCUTASE® for 30 min at 37° C. to obtain single-cell suspensions.
# PC3 cells [3] = assay: Tumor sphere assay, PC3 cells; type: cell-based, human; conditions: for IC50: Homo sapiens, PC-3, read-out: Inhibition of sphere formation ability normalized to control groups, IC50
# Experimental: as §5
# PRC1 = target: T1, PRC1 (Homo sapiens, UniProt Q99496); assay: Inhibition of H2Aub (monoubiquitylation of histone H2A) in PC3 cells; type: cell-based
# T1 construct: PC3 cells were exposed to drugs for the indicated hours; endogenous in cells; host or cells: PC3 cells
# T1 sequence (Q99496 2-336 limits assumed): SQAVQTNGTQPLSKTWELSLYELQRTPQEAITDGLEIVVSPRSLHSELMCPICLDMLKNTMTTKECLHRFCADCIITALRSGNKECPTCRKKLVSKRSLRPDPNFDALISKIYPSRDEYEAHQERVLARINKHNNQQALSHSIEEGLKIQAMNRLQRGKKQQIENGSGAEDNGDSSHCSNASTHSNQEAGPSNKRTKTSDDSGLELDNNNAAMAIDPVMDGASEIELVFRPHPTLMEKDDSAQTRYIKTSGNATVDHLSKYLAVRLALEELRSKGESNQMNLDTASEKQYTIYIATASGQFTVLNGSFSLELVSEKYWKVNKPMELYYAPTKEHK
# Experimental: (§6) For immunoblotting, cells were washed with PBS and lysed in RIPA buffer (50 mM Tris-HCl pH 7.4, 150 mM NaCl, 1 mM EDTA, 1% Triton X-100, 1% sodium deoxycholate, and 0.1% SDS) supplemented with protease inhibitors (Calbiochem) and phosphatase inhibitors (PhosSTOP, Roche Life Science). Protein concentrations were measured by using the DC Protein Assay. Total RNA was extracted using the RNeasy Mini kit coupled with RNase-free DNase set (Qiagen) and reverse transcribed with SuperScript III First-Strand Synthesis SuperMix (Invitrogen). cDNA corresponding to approximately 10 ng of starting RNA was used for one reaction. Q-PCR was performed with Taqman Gene Expression Assay (Applied Biosystems). All quantifications were normalized to endogenous GAPDH.
# PC3 cells were exposed to drugs for the indicated hours, then harvested using […] EDTA in PBS, and washed once with cold PBS. Nuclear extracts were prepared and histones were extracted using 0.4N sulfuric acid. H2A or ubH2A was measured using the indicated antibodies.
# [4] = test system: Pten^pc−/−Smad4^pc−/− cells; assay: Multi-organ metastasis in FVB/NJ mice inoculated intracardially with Pten pc-/- Smad4 pc-/- cells; type: in vivo, mouse; conditions: for Numbers of TAMs and Tregs in bone lesions: on-treatment staining of bone lesions
# Experimental: as §1, §2, §3, §4
# For iNOS/CD68 or Arg1/CD68 staining, first, slides were incubated with anti-iNOS or anti-Arg1 for 5 hours, followed by 60 minutes incubation with biotinylated goat anti-rabbit IgG at 1:200 dilution. The detection was performed with Streptavidin-HRP D (part of DABMap kit, Ventana Medical Systems), followed by incubation with Tyramide Alexa Fluor 488 prepared according to manufacturer instruction with predetermined dilutions. Next, sections were incubated with anti-CD68 for 5 hours, followed by 60 minutes incubation with biotinylated goat anti-rabbit IgG at 1:200 dilution. The detection was performed with Streptavidin-HRP D (part of DABMap kit, Ventana Medical Systems), followed by incubation with Tyramide Alexa CF 594 prepared according to manufacturer instruction with predetermined dilutions. After staining slides were counterstained with DAPI for 10 min and coverslipped with MOWIOL®.
# At the end point in vivo experiment, blood and bone marrow cells were collected from each mouse and treated with Red Blood Cell lysis buffer for 5 minutes. Cells were then washed once with RPMI supplemented 2% FBS, stained with indicated antibodies and analyzed by FACS.
# [5] = test system: RNF2 target genes (CCL2, CXCL1, LGR5, NTS, ATF3); assay: Quantitative RT-PCR of RNF2 target genes in PC3 or RM1 cells; type: cell-based; conditions: 0.5 and 1.0 μM; compared with RNF2 silencing
# Experimental: as §6
# PC3 cells [6] = assay: Gene expression changes and pathway analysis compared with RNF2 silencing; type: cell-based, human; conditions: compared with 2 and RNF2 silencing; data not shown
# Experimental: Data were analyzed in Partek. Total RNAs were isolated from PC3 cells. Libraries were prepared suing the standard methodology from Illumina. Generated libraries were run on a HiSeq2500 system. Raw reads were quality-checked and subsequently mapped to the human genome (hg19) using Tophat2 (2.2.4) using default settings (Langmead and Salzberg, 2012). Differential gene expression was analyzed using the DESeq2 (1.8.1) package in R using default settings (Love et al., 2014). Gene set enrichment analysis (GSEA) (Subramanian et al., 2005) was performed on a pre-ranked gene list that generated based on the gene expression changes between the RNF2 knockdown and control cells. […] Heatmap analysis was performed to show the gene expression patterns between the RNF2 knockdown and control repeats, using heatmap3 R package with ward2 as distance function. Gene expressions in the heatmap were transformed in logarithm scale and normalized accordingly.
# PC3 cells [7] = assay: Cell growth under standard culture conditions; type: cell-based, human; conditions: concentrations up to 1 μM, data not shown
# Experimental: Control and RNF2-silenced PC3 cells were plated at 1×10^3 per well in 96 well plates for 24 hours. After 24 hours, cells were incubated in 0.5 mg/ml MTT (Invitrogen) for 2 h at 37° C. MTT crystals were dissolved in DMSO and absorbance was measured in a plate reader at 540 nm.
# The candidate library was provided by the Organic Synthesis Core Facility from MSKCC. The testing concentration of candidate compounds on PC3 cells was 1 μM. RNF2 target gene expression change was used as a readout for the first round screen. Cell viability, tumor sphere formation assay and histone modification change were then used to further confirm the activity of the candidate compound.
# RM1 cells [8] = assay: Metastasis in C57BL/6 mice injected with RM1 cells; type: in vivo, mouse
# Experimental: as §1, §2
# For bioluminescent imaging, mice were anesthetized and injected with 1.5 mg of D-luciferin retro-orbitally at the indicated times. Animals were imaged in an IVIS® 100 chamber within 5 min after D-luciferin injection, and data were recorded using LIVING IMAGE® software (Xenogen). To measure bone colonization after intracardiac injection, photon flux was calculated by using the ROI tool in the LIVING IMAGE® software. […]
# RNF2-PRC1 complex = target: T2, RNF2-PRC1 complex (Homo sapiens, UniProt Q99496); assay: In vitro ubiquitination assay (cell-free system); type: biochemical; conditions: data not shown
# T2 construct: RNF2-PRC1 complex was immunoprecipitated from one 15 cm plate of PC3 cells; endogenous in cells; host or cells: PC3 cells (immunoprecipitate)
# T2 sequence (Q99496 2-336 limits assumed): T1 sequence (Q99496 2-336 limits assumed)
# Experimental: RNF2-PRC1 complex was immunoprecipitated from one 15 cm plate of PC3 cells. After extensive washing, the complex was pre-incubated with drugs at 4° C. for 30 minutes. UBCH5c, E1, were from Boston Biochem. Reactions were performed in 30 μl of ubiquitilation buffer (50 mM Tris, pH 7.5, 2.5 mM MgCl2, 0.5 mM DTT) containing ubiquitin-activating enzyme 100 ng E1, 200 ng UBCH5c, 10 μg ubiquitin, 0.2 mM ATP, 1 μg H2A, and the indicated PNF2-PRC1 complex. After incubated at 37° C. for 60 min, the reactions were then stopped by the addition of Laemmli sample buffer, and proteins were resolved by SDS-PAGE and immunoblotted using H2A antibody.
# [9] = PC3 cells, titration experiments
# [10] = PC3 cells, read-out: Inhibition of H2Aub normalized to control groups, IC50
# [11] = bone metastatic sites, Pten/Smad4 and RM1 models
smiles,measurement,setting,value
"CNC(=O)c1cc(Oc2ccc3nc(N[C@@H]4CCCC[C@H]4O)sc3c2)ccn1 [BLZ945, reference compound]",Outgrowth of macroscopic bone lesions (bioluminescent imaging),PC3 cells [1],effectively inhibit the outgrowth of macroscopic bone lesions
Nc1ccc(CCN2C(=O)c3c(F)c(F)c(F)c(F)c3C2=O)cc1 [Compound 1],Inhibition of tumor sphere,RM1 cells [2],inhibited tumor sphere to a similar extent
same,IC50,PC3 cells [3]; PC3 cells,130 nM
same,"Inhibition of sphere formation, fold more efficient as compared to 2",PC3 cells [3]; [9],> 7.5 fold
same,"Inhibition of H2AUb, fold more efficient as compared to 2",PRC1; [9],> 7.5 fold
same,IC50,PRC1; [10],470 nM
same,Inhibition of PRC1 activity relative to 3 (PTC209),PRC1; data not shown,more effectively as compared to 3
same,IC50,"PRC1; inhibitor of RNF2, read-out: Apparent IC50 in cells and on target",~470 nM and ~500 nM
same,Multi-organ metastasis (bioluminescent imaging),"[4]; 1 at 10 mg/kg, DCIT = anti-CTLA4 + anti-PD-1",only inhibited this process
same,Number of M1-like macrophages,[4]; [11],increases the number of M1-like macrophages
same,Percentage of M2-like TAMs (CD68 and Arg1/iNOS double staining),[4]; [11],dramatically decreases the percentage of M2-like TAMs
same,Numbers of TAMs and Tregs in bone lesions,[4]; Pten/Smad4 and RM1 models,reduces the numbers of TAMs and Tregs
same,Numbers of MDSCs and TAMs (FACS),[4]; peripheral blood and bone marrow,reduces the numbers of MDSCs and TAMs
same,Downregulation or upregulation of key PRC1 targets (RT-qPCR),[5],as effectively as silencing of RNF2
same,Gene expression changes in cancer-relevant pathways,PC3 cells [6],changes larger than those caused by 2 and by RNF2 silencing
same,Inhibition of cell growth,PC3 cells [7],did not inhibit cell growth
same,"Outgrowth of bone, brain and liver metastases","RM1 cells [8]; C57BL/6 mice, data not shown","inhibited the outgrowth of bone, brain and liver metastases"
same,FACS analysis of leukocytes from peripheral blood,RM1 cells [8]; treated mice,significant decrease of macrophages and increase of T cells and NK cells
same,Inhibition of RNF2-mediated H2AUb,RNF2-PRC1 complex,inhibited RNF2-mediated H2AUb in a dose-dependent fashion
same,Formation of bone metastases,"PC3 cells [1]; 25 mg/kg, treatment from day 7, 2×/week",prevented formation of bone metastases
same,Expansion of bone macrometastases,"PC3 cells [1]; 25 mg/kg, treatment from day 21, 2 weeks of treatment",significant suppression of their expansion
same,Nuclear H2AUb levels in bone sections (IHC),PC3 cells [1]; bone sections of treated mice,substantially decreases
same,Secretion of CCL2 in the tumor microenvironment (IHC),PC3 cells [1]; bone sections of treated mice,substantially decreases
"O=C1C(=Cc2cccnc2)C(=O)c2ccccc21 [Compound 2, 2-(pyridin-3-ylmethylene)-1H-indene-1,3(2H)-dione, reference compound]",IC50,PC3 cells [3]; PC3 cells,1050 nM
same,Concentration at which growth of oncospheres was inhibited,PC3 cells [3]; inhibited only at this concentration,25 µM
same,"Concentration at which PRC1 activity was inhibited, assessed by monoubiquitylation of histone H2A",PRC1,25 µM
same,IC50,PRC1; [10],3520 nM
same,Number of M1-like macrophages,[4]; [11],increases the number of M1-like antigen presentation-competent macrophages
same,Numbers of TAMs and Tregs in bone lesions,[4]; Pten/Smad4 and RM1 models,suppresses the recruitment of total TAMs
"Cc1ccc2c(c1)C1(CCN(CCc3nc(-c4ccccc4)oc3C)CC1)OC(=O)N2 [RS504393, reference compound]",Outgrowth of macroscopic bone lesions (bioluminescent imaging),PC3 cells [1],effectively inhibit the outgrowth of macroscopic bone lesions
